Target: T1, chimeric human H3 receptor (Homo sapiens, UniProt Q9Y5N1)
T1 construct: rat Galpha-i2 (Gnai2, rat); made in house; host or cells: Sf9 insect cells (baculovirus); P2 membranes
Assay: Chimeric human H3 receptor screening GTP binding assay (inhibition of histamine-stimulated GTP-gamma35S binding, Example 8)
Format: biochemical
Conditions: symbol ! in Ki; test compound 4 μM, 1 μM histamine; read-out: percent inhibition of agonist-induced GTP-gammaS binding to H3
How it was run: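 Compound tested at 4 μM against 1 μM histamine stimulation; 125 pM GTP-gamma35S binding measured by filtration and scintillation after 60 min at room temperature. Membranes from Sf9 cells expressing chimeric human H3 plus G-protein subunits, in Tris pH 7.4/NaCl/MgCl2/GDP buffer; values are % inhibition after nonspecific subtraction.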

T1 sequence (Q9Y5N1 with tags, fused parts or gaps): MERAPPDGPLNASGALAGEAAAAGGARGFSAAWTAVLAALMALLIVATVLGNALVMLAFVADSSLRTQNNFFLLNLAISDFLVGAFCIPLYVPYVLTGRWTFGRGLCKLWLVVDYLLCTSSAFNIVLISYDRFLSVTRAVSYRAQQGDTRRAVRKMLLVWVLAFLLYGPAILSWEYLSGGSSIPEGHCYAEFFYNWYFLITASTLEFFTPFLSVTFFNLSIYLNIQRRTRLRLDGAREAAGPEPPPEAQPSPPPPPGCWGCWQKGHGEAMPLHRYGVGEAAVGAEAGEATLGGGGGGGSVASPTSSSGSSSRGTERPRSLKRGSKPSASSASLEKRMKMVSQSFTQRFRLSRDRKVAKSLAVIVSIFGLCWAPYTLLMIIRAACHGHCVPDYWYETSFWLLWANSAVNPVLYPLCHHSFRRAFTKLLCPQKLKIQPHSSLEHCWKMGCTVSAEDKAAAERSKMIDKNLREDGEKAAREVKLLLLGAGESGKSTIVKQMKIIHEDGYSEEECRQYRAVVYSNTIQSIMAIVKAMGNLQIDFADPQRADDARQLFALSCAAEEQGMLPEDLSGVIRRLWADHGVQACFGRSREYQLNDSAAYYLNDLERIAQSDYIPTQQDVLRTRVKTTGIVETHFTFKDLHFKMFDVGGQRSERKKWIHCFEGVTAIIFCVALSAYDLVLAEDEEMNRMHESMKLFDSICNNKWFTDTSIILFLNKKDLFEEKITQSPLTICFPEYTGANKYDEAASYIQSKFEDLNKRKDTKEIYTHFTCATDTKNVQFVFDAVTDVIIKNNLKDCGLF

Row | Compound | inhibition at 4 µM [%]
1 | CC(c1ccccc1F)N1CCc2c(ncnc2N2CCN(C3CCC3)CC2)C1 (centres unmarked) [Compound 102, 4-(4-cyclobutylpiperazin-1-yl)-7-[1-(2-fluorophenyl)ethyl]-5,6,7,8-tetrahydropyrido[3,4-d]pyrimidine] | ≥ 90
2 | CC(c1cccc(F)c1)N1CCc2c(ncnc2N2CCN(C3CCC3)CC2)C1 (centres unmarked) [Compound 103, 4-(4-cyclobutylpiperazin-1-yl)-7-[1-(3-fluorophenyl)ethyl]-5,6,7,8-tetrahydropyrido[3,4-d]pyrimidine] | ≥ 90
3 | CC(c1nccn1C)N1CCc2c(ncnc2N2CCN(C3CCC3)CC2)C1 (centres unmarked) [Compound 107, 4-(4-cyclobutylpiperazin-1-yl)-7-[1-(1-methyl-1H-imidazol-2-yl)ethyl]-5,6,7,8-tetrahydropyrido[3,4-d]pyrimidine] | ≥ 90
4 | CC(c1ccnc2ccccc12)N1CCc2c(ncnc2N2CCN(C3CCC3)CC2)C1 (centres unmarked) [Compound 108, 4-(4-cyclobutylpiperazin-1-yl)-7-(1-quinolin-4-ylethyl)-5,6,7,8-tetrahydropyrido[3,4-d]pyrimidine] | ≥ 90
5 | CC(c1cnc2ccccc2c1)N1CCc2c(ncnc2N2CCN(C3CCC3)CC2)C1 (centres unmarked) [Compound 109, 4-(4-cyclobutylpiperazin-1-yl)-7-(1-quinolin-3-ylethyl)-5,6,7,8-tetrahydropyrido[3,4-d]pyrimidine] | ≥ 90
6 | Cc1cc(C(C)N2CCc3c(ncnc3N3CCN(C4CCC4)CC3)C2)n(C)n1 (centres unmarked) [Compound 112, 4-(4-cyclobutylpiperazin-1-yl)-7-[1-(1,3-dimethyl-1H-pyrazol-5-yl)ethyl]-5,6,7,8-tetrahydropyrido[3,4-d]pyrimidine] | ≥ 90

Next, values leading:

Row | inhibition at 4 µM [%] | Compound
7 | ≥ 90 | CC(c1ccccc1)N1CCc2c(ncnc2N2CCN(C3CCC3)CC2)C1 (centres unmarked) [Compound 101, 4-(4-cyclobutylpiperazin-1-yl)-7-(1-phenylethyl)-5,6,7,8-tetrahydropyrido[3,4-d]pyrimidine]
8 | ≥ 90 | CC(c1ccc(F)cc1)N1CCc2c(ncnc2N2CCN(C3CCC3)CC2)C1 (centres unmarked) [Compound 104, 4-(4-cyclobutylpiperazin-1-yl)-7-[1-(4-fluorophenyl)ethyl]-5,6,7,8-tetrahydropyrido[3,4-d]pyrimidine]
9 | ≥ 90 | Cc1cccc(C(C)N2CCc3c(ncnc3N3CCN(C4CCC4)CC3)C2)c1 (centres unmarked) [Compound 105, 4-(4-cyclobutylpiperazin-1-yl)-7-[1-(3-methylphenyl)ethyl]-5,6,7,8-tetrahydropyrido[3,4-d]pyrimidine]
10 | ≥ 90 | Cc1ccc(C(C)N2CCc3c(ncnc3N3CCN(C4CCC4)CC3)C2)cc1 (centres unmarked) [Compound 106, 4-(4-cyclobutylpiperazin-1-yl)-7-[1-(4-methylphenyl)ethyl]-5,6,7,8-tetrahydropyrido[3,4-d]pyrimidine]
11 | ≥ 90 | Cc1cccc(C(C)N2CCc3c(ncnc3N3CCN(C4CCC4)CC3)C2)n1 (centres unmarked) [Compound 110, 4-(4-cyclobutylpiperazin-1-yl)-7-[1-(6-methylpyridin-2-yl)ethyl]-5,6,7,8-tetrahydropyrido[3,4-d]pyrimidine]
12 | ≥ 90 | CC(c1ccc(N2CCOCC2)nc1)N1CCc2c(ncnc2N2CCN(C3CCC3)CC2)C1 (centres unmarked) [Compound 111, 4-(4-cyclobutylpiperazin-1-yl)-7-[1-(6-morpholin-4-ylpyridin-3-yl)ethyl]-5,6,7,8-tetrahydropyrido[3,4-d]pyrimidine]
13 | ≥ 90 | COc1ccccc1C(C)N1CCc2c(ncnc2N2CCN(C3CCC3)CC2)C1 (centres unmarked) [Compound 113, 4-(4-cyclobutylpiperazin-1-yl)-7-[1-(2-methoxyphenyl)ethyl]-5,6,7,8-tetrahydropyrido[3,4-d]pyrimidine]
14 | ≥ 90 | COc1ccc(C(C)N2CCc3c(ncnc3N3CCN(C4CCC4)CC3)C2)c(OC)c1 (centres unmarked) [Compound 114, 4-(4-cyclobutylpiperazin-1-yl)-7-[1-(2,4-dimethoxyphenyl)ethyl]-5,6,7,8-tetrahydropyrido[3,4-d]pyrimidine]

— US20080051387A1, “TETRAHYDROPYRIDO[3,4-D]PYRIMIDINES AND RELATED ANALOGUES” (priority 2006, published 2008)
